Among the data in BindingDB's records for patent US20250059188 (Anaxis Pharma, 2025) are Kd values, retold here.

Holding throughout (test): In Vitro Assay
Experiment [1] has as its target T1, Receptor-interacting serine/threonine-protein kinase 1 (Homo sapiens, UniProt Q13546).
T1 sequence (Q13546 whole entry): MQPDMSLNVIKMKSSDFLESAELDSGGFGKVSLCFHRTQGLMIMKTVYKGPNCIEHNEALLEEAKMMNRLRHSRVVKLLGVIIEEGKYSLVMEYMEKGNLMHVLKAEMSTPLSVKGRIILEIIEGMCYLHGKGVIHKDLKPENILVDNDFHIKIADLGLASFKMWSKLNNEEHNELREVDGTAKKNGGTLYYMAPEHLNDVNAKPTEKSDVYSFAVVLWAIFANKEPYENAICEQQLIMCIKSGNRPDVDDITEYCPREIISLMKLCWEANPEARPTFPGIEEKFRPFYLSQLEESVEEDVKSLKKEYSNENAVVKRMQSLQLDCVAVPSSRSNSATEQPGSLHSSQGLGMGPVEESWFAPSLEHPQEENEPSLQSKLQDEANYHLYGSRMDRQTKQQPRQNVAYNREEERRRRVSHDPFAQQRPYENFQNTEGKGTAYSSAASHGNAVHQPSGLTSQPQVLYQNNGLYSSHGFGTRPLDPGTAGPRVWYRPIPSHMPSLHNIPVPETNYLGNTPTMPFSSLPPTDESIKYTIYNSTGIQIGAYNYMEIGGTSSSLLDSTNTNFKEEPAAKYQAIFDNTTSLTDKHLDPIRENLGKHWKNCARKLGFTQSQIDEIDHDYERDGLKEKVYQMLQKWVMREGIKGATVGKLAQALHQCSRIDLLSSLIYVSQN
How it is done:
(§1) For most assays, kinase-tagged T7 phage strains were grown in parallel in 24-well blocks in an E. coli host derived from the BL21 strain. E. coli were grown to log-phase and infected with T7 phage from a frozen stock (multiplicity of infection=0.4) and incubated with shaking at 32° C. until lysis (90-150 minutes). The lysates were centrifuged (6,000×g) and filtered (0.2 μm) to remove cell debris. The remaining kinases were produced in HEK-293 cells and subsequently tagged with DNA for qPCR detection. […] The liganded beads were blocked with excess biotin and washed with blocking buffer (SeaBlock (Pierce), 1% BSA, 0.05% Tween 20, 1 mM DTT) to remove unbound ligand and to reduce non-specific phage binding. […] All reactions were performed in polypropylene 384-well plates in a final volume of 20 μL. […] The kinase concentration in the eluates was measured by qPCR.

Experiment [2] addresses T2, Mixed lineage kinase domain-like protein (Homo sapiens, UniProt Q8NB16).
T2 sequence (Q8NB16 whole entry): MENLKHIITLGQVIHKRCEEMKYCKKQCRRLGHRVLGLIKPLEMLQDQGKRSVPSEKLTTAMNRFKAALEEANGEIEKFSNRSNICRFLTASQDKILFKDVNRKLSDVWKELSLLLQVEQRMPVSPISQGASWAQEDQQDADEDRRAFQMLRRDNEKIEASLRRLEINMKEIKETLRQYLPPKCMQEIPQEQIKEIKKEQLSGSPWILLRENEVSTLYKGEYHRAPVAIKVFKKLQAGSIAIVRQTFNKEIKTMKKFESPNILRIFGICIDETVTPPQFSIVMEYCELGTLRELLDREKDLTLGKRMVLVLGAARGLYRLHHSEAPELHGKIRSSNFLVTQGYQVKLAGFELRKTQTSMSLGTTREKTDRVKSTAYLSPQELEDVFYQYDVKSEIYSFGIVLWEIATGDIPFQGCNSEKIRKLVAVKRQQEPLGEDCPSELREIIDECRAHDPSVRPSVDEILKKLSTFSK
Here is the method:
as §1

Experiment [3] addresses Receptor-interacting serine/threonine-protein kinase 3 (Homo sapiens, UniProt Q9Y572). Here is the method: as §1

pKd: −log10 of the molar value. Bounds are passed on as bounds.

Chain of Receptor-interacting serine/threonine-protein kinase 3 (Q9Y572 whole entry): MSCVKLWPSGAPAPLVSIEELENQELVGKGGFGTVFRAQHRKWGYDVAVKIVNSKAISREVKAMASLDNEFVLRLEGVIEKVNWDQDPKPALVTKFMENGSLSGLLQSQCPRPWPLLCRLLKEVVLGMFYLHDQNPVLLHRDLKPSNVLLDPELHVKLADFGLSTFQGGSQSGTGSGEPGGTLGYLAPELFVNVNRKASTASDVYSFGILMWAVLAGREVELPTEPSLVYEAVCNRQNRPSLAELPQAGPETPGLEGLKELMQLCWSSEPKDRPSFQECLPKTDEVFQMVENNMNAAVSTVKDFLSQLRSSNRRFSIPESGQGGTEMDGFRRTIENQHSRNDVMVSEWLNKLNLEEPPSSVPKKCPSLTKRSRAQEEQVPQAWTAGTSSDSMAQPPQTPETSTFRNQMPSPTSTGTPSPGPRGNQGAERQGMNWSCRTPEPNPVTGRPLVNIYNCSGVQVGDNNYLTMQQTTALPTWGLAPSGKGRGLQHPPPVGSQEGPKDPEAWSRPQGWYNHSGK

Consider `Cn1nc(-c2ccc(NS(=O)(=O)C(F)F)c(OCc3ccc(F)cc3)c2)c2c(N)ncc(-c3ccncc3)c21` [US20250059188, Compound 14], for which the pKd in experiment [1] was under 5.00; in experiment [2], over 9.00; in experiment [3] it was under 5.00.

Turning to `C[C@H](Oc1cc(C2C=NN3C=CN=C(N)C23)ccc1NS(=O)(=O)C(F)F)c1ccc(F)cc1` (some centres undefined) [US20250059188, Compound 22], the negative-log Kd (pKd) was under 5.00 in experiment [1], over 9.00 in experiment [2] and under 5.00 in experiment [3].

Consider `COc1ccc([C@H](C)Oc2cc(-c3nn(C)c4c(-c5cnn(C6CCOCC6)c5)cnc(N)c34)ccc2NS(=O)(=O)C(F)F)cc1` [US20250059188, Compound 129], for which the negative-log Kd (pKd) in experiment [1] was under 5.00; in experiment [2], over 9.00; in experiment [3], under 5.00.

For the compound `C[C@H](Oc1cc(-c2nn(C)c3c(-c4cnn(C5CCN(C)C(C(F)F)C5)c4)cnc(N)c23)ccc1NS(=O)(=O)C(F)F)c1ccc(F)cc1` (some centres undefined) [US20250059188, Compound 158], the pKd in experiment [1] and in experiment [3] was under 5.00 in each case.

With `C[C@H](Oc1cc(-c2nn(C)c3c(-c4cnn(C5CCC(N(C)C)C5)c4)cnc(N)c23)ccc1NS(=O)(=O)C(F)F)c1ccc(F)cc1` (some centres undefined) [US20250059188, Compound 168], the values for the pKd in experiment [1], in experiment [2] and in experiment [3] were under 5.00, over 9.00 and under 5.00, respectively.
